Experimental data as given in patent US9944618B2, “Inhibiting neurotransmitter reuptake” (Mayo Foundation for Medical Education and Research, priority 2013, dated 2018).
Read-outs that look alike come from different tables or passages of the source.

How the values were obtained:
[1] = pKa of basic centres (Table 1); type: physicochemical
CYP2D6 = CYP2D6 (Homo sapiens (Human), UniProt P10635); assay: Cytochrome P450 inhibition assay, recombinant CYP2D6 (MAMC substrate); type: in vitro ADME; conditions: recombinant enzyme
Sequence of CYP2D6 (P10635 whole entry): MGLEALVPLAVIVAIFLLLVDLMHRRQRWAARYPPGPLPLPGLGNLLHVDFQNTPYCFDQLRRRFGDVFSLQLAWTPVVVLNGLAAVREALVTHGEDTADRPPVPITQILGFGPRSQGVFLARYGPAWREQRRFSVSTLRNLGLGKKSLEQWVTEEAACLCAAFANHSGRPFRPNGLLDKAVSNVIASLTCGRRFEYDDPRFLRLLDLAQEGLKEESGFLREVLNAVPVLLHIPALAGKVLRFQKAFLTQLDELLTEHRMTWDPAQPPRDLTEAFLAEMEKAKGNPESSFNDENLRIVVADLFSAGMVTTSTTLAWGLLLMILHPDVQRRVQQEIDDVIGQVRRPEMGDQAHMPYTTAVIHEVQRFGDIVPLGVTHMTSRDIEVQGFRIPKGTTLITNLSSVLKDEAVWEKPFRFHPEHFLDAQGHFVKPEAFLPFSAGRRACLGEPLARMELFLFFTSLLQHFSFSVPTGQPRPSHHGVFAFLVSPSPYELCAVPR

hERG = hERG (Homo sapiens (Human), UniProt Q12809); assay: Human ERG (hERG) assay, hERG currents in hERG-expressing CHO cells; type: cell-based
Sequence of hERG (Q12809 whole entry): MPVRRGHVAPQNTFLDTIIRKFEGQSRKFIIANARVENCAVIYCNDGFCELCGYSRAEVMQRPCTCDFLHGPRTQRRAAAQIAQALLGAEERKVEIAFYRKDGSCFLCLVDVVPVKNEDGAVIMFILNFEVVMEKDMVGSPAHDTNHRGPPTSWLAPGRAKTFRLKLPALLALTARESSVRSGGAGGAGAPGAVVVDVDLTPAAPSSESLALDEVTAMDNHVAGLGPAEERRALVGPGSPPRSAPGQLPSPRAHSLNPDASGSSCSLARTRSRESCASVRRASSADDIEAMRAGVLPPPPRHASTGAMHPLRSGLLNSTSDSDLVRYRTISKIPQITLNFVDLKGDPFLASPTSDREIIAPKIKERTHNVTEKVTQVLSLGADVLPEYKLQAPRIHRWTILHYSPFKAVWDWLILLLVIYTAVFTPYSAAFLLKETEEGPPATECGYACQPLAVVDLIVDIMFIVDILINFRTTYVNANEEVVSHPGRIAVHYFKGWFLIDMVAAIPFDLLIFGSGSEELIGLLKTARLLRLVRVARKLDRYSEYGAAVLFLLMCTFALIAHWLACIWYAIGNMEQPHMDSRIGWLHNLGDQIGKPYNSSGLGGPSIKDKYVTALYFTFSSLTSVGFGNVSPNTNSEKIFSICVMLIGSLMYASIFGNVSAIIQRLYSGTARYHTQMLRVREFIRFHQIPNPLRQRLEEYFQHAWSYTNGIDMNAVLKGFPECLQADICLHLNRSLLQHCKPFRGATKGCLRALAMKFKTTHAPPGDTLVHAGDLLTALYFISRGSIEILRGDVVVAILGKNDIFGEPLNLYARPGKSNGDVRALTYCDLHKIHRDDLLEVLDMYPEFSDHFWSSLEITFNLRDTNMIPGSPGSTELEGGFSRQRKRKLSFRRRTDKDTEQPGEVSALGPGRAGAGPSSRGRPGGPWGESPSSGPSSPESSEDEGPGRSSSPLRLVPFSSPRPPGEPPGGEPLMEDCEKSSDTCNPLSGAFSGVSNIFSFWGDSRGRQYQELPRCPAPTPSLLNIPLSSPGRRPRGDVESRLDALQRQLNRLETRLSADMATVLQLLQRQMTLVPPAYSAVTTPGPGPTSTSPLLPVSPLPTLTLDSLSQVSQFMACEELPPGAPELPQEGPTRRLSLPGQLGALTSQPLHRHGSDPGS
Excerpt: The voltage-dependent potassium channel encoded by the human ether-a-go-go-related gene (hERG) is believed to play a key role in repolarisation of the ventricular cardiac action potential. Changes in its activity, caused either by inherited mutations of the gene sequence or pharmacological modification, can lead to prolongation of action potential duration. This can lead to prolongation of the QT interval recorded in man on an electrocardiogram and to a potentially fatal cardiac arrhythmia known as Torsades de Pointes.
hERG currents were recorded from hERG-expressing CHO cells. The biophysical and pharmacological characterization of the hERG currents in these cells was performed.

[2] = molecular target: human serotonin transporter (Homo sapiens (Human), UniProt P31645); assay: Human SERT (serotonin transporter) uptake assay; type: cell-based; conditions: read-out: hSERT Ki
Sequence of human serotonin transporter (P31645 whole entry): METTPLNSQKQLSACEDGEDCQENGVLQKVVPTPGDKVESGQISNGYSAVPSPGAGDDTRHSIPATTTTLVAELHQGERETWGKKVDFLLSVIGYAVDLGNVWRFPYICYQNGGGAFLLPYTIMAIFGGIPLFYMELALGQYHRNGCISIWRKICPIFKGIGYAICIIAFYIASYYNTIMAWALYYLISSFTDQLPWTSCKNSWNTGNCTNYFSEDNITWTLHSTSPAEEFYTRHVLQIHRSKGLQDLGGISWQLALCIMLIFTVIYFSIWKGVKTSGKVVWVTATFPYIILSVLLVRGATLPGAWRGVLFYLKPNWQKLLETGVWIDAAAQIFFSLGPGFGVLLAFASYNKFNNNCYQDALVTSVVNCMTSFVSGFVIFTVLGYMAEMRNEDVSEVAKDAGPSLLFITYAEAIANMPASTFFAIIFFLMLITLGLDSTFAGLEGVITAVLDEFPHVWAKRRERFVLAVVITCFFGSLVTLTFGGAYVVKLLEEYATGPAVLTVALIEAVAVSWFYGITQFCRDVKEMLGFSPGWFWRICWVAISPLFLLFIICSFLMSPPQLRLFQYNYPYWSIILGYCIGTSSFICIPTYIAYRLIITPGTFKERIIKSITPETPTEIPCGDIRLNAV
How it was run: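 HEK293F cells transfected with human SERT, about 60,000 per well, settled for ≥3 h at 37° C before compound addition. Uptake was followed with a fluorescent transporter dye in HBSS with 0.02 M HEPES. Background came from 10 μM fluoxetine, nomifensine was the control, n=3.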

[3] = molecular target: human norepinephrine transporter (Homo sapiens (Human), UniProt P23975); assay: Human NET (norepinephrine transporter) uptake assay; type: cell-based; conditions: read-out: hNET Ki
Sequence of human norepinephrine transporter (P23975 whole entry): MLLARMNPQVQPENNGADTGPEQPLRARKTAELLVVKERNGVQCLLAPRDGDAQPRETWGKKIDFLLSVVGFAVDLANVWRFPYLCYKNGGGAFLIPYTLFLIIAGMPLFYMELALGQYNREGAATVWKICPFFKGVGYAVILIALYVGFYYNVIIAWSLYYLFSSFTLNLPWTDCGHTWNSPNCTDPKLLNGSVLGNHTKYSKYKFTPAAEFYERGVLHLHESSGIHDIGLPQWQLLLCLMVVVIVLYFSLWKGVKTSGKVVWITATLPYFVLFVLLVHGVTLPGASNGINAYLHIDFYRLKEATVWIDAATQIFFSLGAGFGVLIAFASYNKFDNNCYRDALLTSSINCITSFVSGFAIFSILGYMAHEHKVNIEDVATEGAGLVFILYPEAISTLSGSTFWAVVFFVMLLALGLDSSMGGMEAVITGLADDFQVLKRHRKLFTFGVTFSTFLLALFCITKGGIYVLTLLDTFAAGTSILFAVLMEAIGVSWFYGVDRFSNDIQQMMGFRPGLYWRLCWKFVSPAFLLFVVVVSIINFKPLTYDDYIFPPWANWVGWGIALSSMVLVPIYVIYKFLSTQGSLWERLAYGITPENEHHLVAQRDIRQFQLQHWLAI
How it was run: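 HEK293F cells transfected with human NET were thawed, plated at about 60,000 cells/well and held at 37 °C for at least 3 h. Compounds came from 10 mM DMSO stocks, with nomifensine as control, in 1×HBSS/0.02 M HEPES. Uptake was followed with a neurotransmitter transporter dye, dosed as % of vendor reconstitution, in triplicate.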

[4] = molecular target: human dopamine transporter (Homo sapiens (Human), UniProt Q01959); assay: Human DAT (dopamine transporter) uptake assay; type: cell-based; conditions: read-out: hDAT Ki
Sequence of human dopamine transporter (Q01959 whole entry): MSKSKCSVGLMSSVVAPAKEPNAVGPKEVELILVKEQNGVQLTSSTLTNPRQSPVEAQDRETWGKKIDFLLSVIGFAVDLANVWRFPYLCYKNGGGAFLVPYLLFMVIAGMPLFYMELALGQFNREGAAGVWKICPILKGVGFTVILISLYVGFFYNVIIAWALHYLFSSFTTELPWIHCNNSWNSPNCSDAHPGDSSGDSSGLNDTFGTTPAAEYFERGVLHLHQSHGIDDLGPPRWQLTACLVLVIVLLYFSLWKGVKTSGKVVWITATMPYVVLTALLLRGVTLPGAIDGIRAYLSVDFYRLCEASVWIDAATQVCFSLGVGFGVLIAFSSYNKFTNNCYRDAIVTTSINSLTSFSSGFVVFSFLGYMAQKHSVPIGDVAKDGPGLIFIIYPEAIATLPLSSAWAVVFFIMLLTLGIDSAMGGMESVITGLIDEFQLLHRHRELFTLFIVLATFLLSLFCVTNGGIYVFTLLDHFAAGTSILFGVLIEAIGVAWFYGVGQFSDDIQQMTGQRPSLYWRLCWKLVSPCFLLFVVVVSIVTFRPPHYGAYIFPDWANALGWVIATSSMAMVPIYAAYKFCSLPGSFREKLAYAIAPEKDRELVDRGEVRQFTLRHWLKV
How it was run: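 Uptake inhibition was measured in HEK293F cells transfected with human DAT, plated at ~60,000 cells/well and settled ≥3 h at 37 °C. Compounds came from 10 mM DMSO stocks. Read-out was uptake of a fluorescent neurotransmitter transporter dye in HBSS with 0.02 M HEPES, with dye level given as % of vendor reconstitution; n=3.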

CYP3A4 = CYP3A4 (Homo sapiens (Human), UniProt P08684); assay: Cytochrome P450 inhibition assay, recombinant CYP3A4 (BFC substrate); type: in vitro ADME; conditions: recombinant enzyme
Sequence of CYP3A4 (P08684 whole entry): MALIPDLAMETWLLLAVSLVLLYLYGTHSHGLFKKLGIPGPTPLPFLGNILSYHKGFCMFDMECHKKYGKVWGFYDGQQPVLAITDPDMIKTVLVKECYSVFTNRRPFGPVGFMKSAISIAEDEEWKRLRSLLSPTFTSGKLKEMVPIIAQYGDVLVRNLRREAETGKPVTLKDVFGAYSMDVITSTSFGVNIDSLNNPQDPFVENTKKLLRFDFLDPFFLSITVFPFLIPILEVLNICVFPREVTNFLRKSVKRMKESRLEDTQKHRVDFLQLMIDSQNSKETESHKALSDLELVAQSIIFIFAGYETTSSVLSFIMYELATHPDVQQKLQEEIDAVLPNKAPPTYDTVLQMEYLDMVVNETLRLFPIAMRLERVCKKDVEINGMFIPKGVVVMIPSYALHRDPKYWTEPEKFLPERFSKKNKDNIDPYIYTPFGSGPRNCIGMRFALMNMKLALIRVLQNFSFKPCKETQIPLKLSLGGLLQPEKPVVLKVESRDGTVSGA

[5] = first base, e.g., an aliphatic primary, secondary, or tertiary amine, read-out: pKa (Base 1)
[6] = first base, e.g., an aliphatic primary, secondary, or tertiary amine
[7] = selected reference compounds, CHO cells
[8] = selected reference compounds, HEK293F cells, Cheng-Prusoff

| SMILES | pKa [1, 5] | IC50 (CYP2D6) [nM] | IC50 (hERG; hERG-expressing CHO cells) [nM] | Ki [2] [nM] | Ki [3] [nM] | Ki [4] [nM] | IC50 (CYP3A4) [nM] | pKa (Base 1) [1, 6] | pKa ([1]; second base in the same molecule (if present), read-out: pKa (Base 2)) | IC50 (hERG; [7]) [nM] | Ki [2, 8] [nM] | Ki [3, 8] [nM] | Ki [4, 8] [nM] |
| --- | --- | --- | --- | --- | --- | --- | --- | --- | --- | --- | --- | --- | --- |
| CNCC(Cc1cccs1)c1ccc2ccccc2c1 (racemic) [Compound 40] | 10 | 960 | 4100 | 3.3 | 3.2 | 114 | 19000 |  |  |  |  |  |  |
| CNC[C@H](c1ccc(Br)c(Cl)c1)[C@H](O)c1ccccc1 (racemic) [Compound 43] | 9.4 | 110 | 7100 | 19.7 | 3.3 | 7.3 | 8100 |  |  |  |  |  |  |
| CNCC(c1ccc(Cl)c(Cl)c1)[C@H](O)c1ccccc1 (mixture of isomers) [Compound 53] | 9.4 | 410 | 9800 | 17.3 | 4.5 | 9.8 | ≥ 20000 |  |  |  |  |  |  |
| CNC[C@H](c1ccc2ccccc2c1)[C@H](O)c1ccccc1C (racemic) [Compound 56] | 9.7 | 240 | 22000 | 6.7 | 4.7 | 40.4 | 11000 |  |  |  |  |  |  |
| CNCC(c1ccc2ccccc2c1)[C@H](CO)c1ccccc1 (single isomer, unassigned) [Compound 25] | 9.9 | 320 | 33000 | 22.7 | 2.2 | 106 |  |  |  |  |  |  |  |
| CNC[C@H](c1ccc2ccccc2c1)[C@H](OCC(=O)NC)c1ccccc1 [Compound 1] | 9.6 | 1100 | 33000 | 1.9 | 0.7 | 20.7 |  |  |  |  |  |  |  |
| CNCC(Cc1ccccc1CO)c1ccc2ccccc2c1 (centres unmarked) [Compound 2] |  | 170 | 15000 | 2.5 | 1 | 5.5 |  | 10 |  |  |  |  |  |
| CCNC(=O)CO[C@H](c1ccccc1)[C@H](CNC)c1ccc2ccccc2c1 [Compound 6] | 9.6 | 760 | 25000 | 0.8 | 1.4 | 39.2 |  |  |  |  |  |  |  |
| CNC[C@H](c1ccc2ccccc2c1)[C@H](OCc1cc(C)on1)c1ccccc1 [Compound 18] | 9.6 | 330 | 4600 | 0.4 | 1.8 | 31.9 |  |  |  |  |  |  |  |
| CNC[C@H](c1ccc2ccccc2c1)[C@H](OCc1cc(C)no1)c1ccccc1 [Compound 20] | 9.6 |  | 4700 | 3.2 | 1.9 | 36.1 |  |  |  |  |  |  |  |
| CCCNC(=O)CO[C@H](c1ccccc1)[C@H](CNC)c1ccc2ccccc2c1 [Compound 29] | 9.6 | 650 | 11000 | 1.1 | 2.4 | 37.2 |  |  |  |  |  |  |  |
| CNC[C@H](c1ccc2ccccc2c1)[C@H](OCC(=O)N1CCC1)c1ccccc1 [Compound 30] | 9.6 |  | 29000 | 1 | 2.4 | 14.3 |  |  |  |  |  |  |  |
| CNC[C@H](c1ccc2ccccc2c1)[C@H](OCC(=O)N(C)C)c1ccccc1 [Compound 33] | 9.6 | 550 | 33000 | 1.4 | 2.7 | 13.2 |  |  |  |  |  |  |  |
| CCOC(=O)CO[C@H](c1ccccc1)[C@H](CNC)c1ccc2ccccc2c1 [Compound 35] | 9.6 | 320 | 13000 | 3.7 | 2.8 | 70.8 |  |  |  |  |  |  |  |
| CNC[C@H](c1ccc2ccccc2c1)[C@H](OCC(=O)N1CCCC1)c1ccccc1 [Compound 50] | 9.6 | 800 | 17000 | 2.9 | 3.8 | 36.5 |  |  |  |  |  |  |  |
| c1ccc([C@@H]2OCCNC[C@H]2c2ccc3ccccc3c2)cc1 [Compound 64] | 9.3 | 5100 | 20000 | 11.3 | 7.2 | 9.4 |  |  |  |  |  |  |  |
| CNCC(c1ccc(F)c(Cl)c1)[C@H](O)c1ccccc1 (some centres unmarked) [Compound 73] | 9.3 | 790 | 31000 |  |  |  | 20000 |  |  |  |  |  |  |
| CN1CCO[C@H](c2ccccc2)[C@@H](c2ccc3ccccc3c2)C1 [Compound 77] | 8.2 | 5700 | 4500 | 3 | 12.4 | 44.7 |  |  |  |  |  |  |  |
| CN(C)C[C@H](c1ccc2ccccc2c1)[C@H](O)c1ccccc1 [Compound 83] | 9 |  | 4300 |  | 15.7 | 46.7 |  |  |  |  |  |  |  |
| CNCC(Cc1ccccc1CO)c1ccc2ccccc2c1 (centres unmarked) [Compound 90] | 10 | 590 | 12000 | 25.4 | 22.6 | 86.2 |  |  |  |  |  |  |  |
| CNC[C@H](C[C@H](O)c1ccccc1)c1ccc2ccccc2c1 [Compound 93] | 10.1 | 1200 | 13000 | 1.1 | 29.5 | 137 |  |  |  |  |  |  |  |
| CNC[C@@H](c1ccc(Cl)c(Cl)c1)[C@@H](O)c1ccccc1 [Compound 114] | 9.4 |  | 11000 | 661 | 171 | 27 |  |  |  |  |  |  |  |
| CNCC(Cc1ccccc1OC)c1ccc2ccccc2c1 (centres unmarked) [Compound 132] |  |  | 4700 | 12.4 | 10.3 | 41.8 |  | 10.1 |  |  |  |  |  |
| CNC[C@@H](c1ccc(Cl)c(Cl)c1)[C@@H](O)c1cccnc1OC [Compound 171] | 9.2 | 2000 |  | 1850 | 454 | 92 | 20000 |  | 3.2 |  |  |  |  |
| CNC[C@H](c1ccc2ccccc2c1)[C@H](O)c1ccccc1 [compound 173] |  |  |  |  |  |  |  |  |  | 8800 | 1.2 | 0.5 | 4.6 |
| CNC[C@@H](c1ccc2ccccc2c1)[C@H](O)c1ccccc1 [compound 180] |  |  |  |  |  |  |  |  |  | 32000 | 14.8 | 2.9 | 47.5 |
